Source: patent US8450319B2, “Pyrrolopyridazinone compound” (Ube Industries, Ltd., priority 2006, dated 2013)

Tests used:
cynomulgus monkey = assay: Emetic action test in cynomulgus monkey; details: suspended in 0.5% aqueous methyl cellulose, administered nasally; emesis observed for 24 hours; 3 or 4 monkeys per dose
Description: The compound to be tested was suspended in 0.5% aqueous methyl cellulose solution (5 ml/Kg), and administered nasally.
With respect to each dose, each administered to 3 or 4 monkeys, and a dose in which emesis had not been admitted in all monkeys was made a maximum non-emesis dose.

PDE4 = assay: Measurement of PDE4 enzyme inhibiting action; type: biochemical, human; details: PDE4 enzyme solution from polymorphonuclear leukocytes of healthy volunteer; 0.2 μM [3H]cAMP, 30° C., 30 minutes; read-out: PDE4 inhibition IC50 value
Description: Preparation of a PDE4 enzyme solution was carried out according to the method of Cooper et al. (Br. J. Pharmacol., 126, 1863 (1999)) by modifying a part thereof. Heparin-treated peripheral blood from healthy volunteer was stratified by a blood cell separating solution (Polymorphprep™, available from AXIS-SHIELD PoC AS CO.), and centrifugation was carried out at 20° C. with 1900 rpm for 27 minutes to obtain polymorphonuclear leukocytes. The polymorphonuclear leukocytes were washed with a Hanks' balanced salt solution, then, a mixed solution comprising 70% of 10 mM 3-morpholinopropane sulfonic acid buffer solution (pH 7.4) containing 1 mM EGTA, 1 mM magnesium acetate and 5 mM dithiothreitol and 30% of ethylene glycol was added thereto to dissolve the same under ice-cooling, and the obtained cell dissolved solution was used as a PDE4 enzyme solution.
Measurement of PDE4 activity was carried out according to the method of Owens, et al. (Biochem. J., 326, 53 (1997)) by modifying a part thereof. The PDE4 enzyme solution was incubated with a compound to be tested dissolved in dimethylsulfoxide in 80 mM Tris-HCl buffer solution (pH 7.4) containing 0.2 μM [^3H] cAMP, 0.1 mM cGMP, 20 mM MgCl2 and 12 mM 2-mercaptoethanol at 30° C. for 30 minutes. Trifluoroacetic acid (final concentration: 1%) was added to the mixture to stop the reaction, and the reaction mixture was added to neutral alumina column (BOND ELUT™, available from VARIAN INC.). After the column was washed with 100 mM Tris-HCl buffer solution (pH 8.0), [^3H] 5′-AMP was eluted with 2N sodium hydroxide solution, and radioactivity of the eluent was measured by a liquid scintillation analyzer.
A concentration of the compound to be tested which inhibits 50% of PDE4 activity was calculated from the relation between the concentration of the compound to be tested which had been added and PDE4 activity as an IC50 value.

| Structure (SMILES) | Monkey Maximum non-emesis dose (cynomulgus monkey) [mg/kg] | melting point | IC50 (PDE4) [nM] |
| --- | --- | --- | --- |
| O=C(Nc1c(Cl)cncc1Cl)c1ccc(OC(F)F)c(OCC2CC2)c1 [compound A, N-(3,5-dichloro-4-pyridyl)-3-cyclopropylmethoxy-4-difluoromethoxybenzamide, reference compound] | 0.1 | – | – |
| CC(C)COCc1c(-c2ccc(OC(F)F)c(OC3CC3)c2)[nH]c2cn[nH]c(=O)c12 [Example 62, 2-(3-Cyclopropoxy-4-difluoromethoxyphenyl)-3-isobutoxymethyl-1,5-dihydropyrrolo[2,3-d]pyridazin-4-one] | >10 | 162 to 164 °C | 0.41 |
| O=c1[nH]ncc2[nH]c(-c3ccc(OC(F)F)c(OC4CCC4)c3)c(-c3ccccc3)c12 [Example 34, 2-(3-Cyclobutoxy-4-difluoromethoxyphenyl)-3-phenyl-1,5-dihydropyrrolo[2,3-d]pyridazin-4-one] | – | 280 to 284 °C | 8.7 |
| C=CC(O)c1c(-c2ccc(OC(F)F)c(OC3CC3)c2)[nH]c2cn[nH]c(=O)c12 (centres unmarked) [Example 75, 2-(3-Cyclopropoxy-4-difluoromethoxyphenyl)-3-(1-hydroxy-2-propenyl)-1,5-dihydropyrrolo[2,3-d]pyridazin-4-one] | – | 202 to 203 °C | 1.5 |
| O=c1[nH]ncc2[nH]c(-c3ccc(OC(F)F)c(OC4CCC4)c3)c(Br)c12 [Example 33, 3-Bromo-2-(3-cyclobutoxy-4-difluoromethoxyphenyl)-1,5-dihydropyrrolo[2,3-d]pyridazin-4-one] | – | 234 to 238 °C | 1.8 |
| O=c1[nH]ncc2[nH]c(-c3ccc(OC(F)F)c(OC4CC4)c3)c(C3CC3)c12 [Example 14, 2-(3-Cyclopropoxy-4-difluoromethoxyphenyl)-3-cyclopropyl-1,5-dihydropyrrolo[2,3-d]pyridazin-4-one] | – | 248 to 249 °C | 4.7 |
| O=c1[nH]ncc2[nH]c(-c3ccc(OC(F)F)c(OC4CC4)c3)c(Br)c12 [Example 3, 3-Bromo-2-(3-cyclopropoxy-4-difluoromethoxyphenyl)-1,5-dihydropyrrolo[2,3-d]pyridazin-4-one] | – | 267 to 270 °C (dec.) | 5.2 |
| CC1(C)C=Cc2c(-c3[nH]c4cn[nH]c(=O)c4c3Cl)ccc(OC(F)F)c2O1 [Example 52, 3-Chloro-2-(8-difluoromethoxy-2,2-dimethyl-2H-chromen-5-yl)-1,5-dihydropyrrolo[2,3-d]pyridazin-4-one] | – | 226 to 234 °C | 8 |
| O=c1[nH]ncc2[nH]c(-c3ccc(OC(F)F)c(OC4CC4)c3)c(Cc3ccccc3)c12 [Example 19, 3-Benzyl-2-(3-cyclopropoxy-4-difluoromethoxyphenyl)-1,5-dihydropyrrolo[2,3-d]pyridazin-4-one] | – | 215 to 217 °C | 0.18 |
| O=c1[nH]ncc2[nH]c(-c3ccc(OC(F)F)c4c3C=CC3(CCCC3)O4)c(Cl)c12 [Example 57, 3-Chloro-2-(8-difluoromethoxy-2H-chromen-2-spiro-1′-cyclopentan-5-yl)-1,5-dihydropyrrolo[2,3-d]pyridazin-4-one] | – | > 300 °C | 11 |
| CCOCc1c(-c2ccc(OC(F)F)c(OC3CC3)c2)[nH]c2cn[nH]c(=O)c12 [Example 12, 2-(3-Cyclopropoxy-4-difluoromethoxyphenyl)-3-ethoxymethyl-1,5-dihydropyrrolo[2,3-d]pyridazin-4-one] | 3 | 141 to 143 °C | 4.6 |
| C#Cc1c(-c2ccc(OC(F)F)c(OC3CC3)c2)[nH]c2cn[nH]c(=O)c12 [Example 16, 2-(3-Cyclopropoxy-4-difluoromethoxyphenyl)-3-ethynyl-1,5-dihydropyrrolo[2,3-d]pyridazin-4-one] | – | > 300 °C | 13 |
| CCCCCCc1c(-c2ccc(OC(F)F)c(OC3CC3)c2)[nH]c2cn[nH]c(=O)c12 [Example 69, 2-(3-Cyclopropoxy-4-difluoromethoxyphenyl)-3-hexyl-1,5-dihydropyrrolo[2,3-d]pyridazin-4-one] | – | 186 to 188 °C | 0.38 |
| CCCCc1c(-c2ccc(OC)c(OC3CC3)c2)[nH]c2cn[nH]c(=O)c12 [Example 44, 3-Butyl-2-(3-cyclopropoxy-4-methoxyphenyl)-1,5-dihydropyrrolo[2,3-d]pyridazin-4-one] | – | 198 to 200 °C | 2.6 |
| O=c1[nH]ncc2[nH]c(-c3ccc(OC(F)F)c(OC4CCC4)c3)cc12 [Example 31, 2-(3-Cyclobutoxy-4-difluoromethoxyphenyl)-1,5-dihydropyrrolo[2,3-d]pyridazin-4-one] | – | 289 to 291 °C | 9.1 |
| O=c1[nH]ncc2[nH]c(-c3ccc(OC(F)F)c(OCC4CC4)c3)c(Cl)c12 [Example 36, 3-Chloro-2-(3-cyclopropylmethoxy-4-difluoromethoxyphenyl)-1,5-dihydropyrrolo[2,3-d]pyridazin-4-one] | – | 258 to 260 °C | 7.9 |
| CC(C)C#CCc1c(-c2ccc(OC(F)F)c(OC3CC3)c2)[nH]c2cn[nH]c(=O)c12 [Example 73, 2-(3-cyclopropoxy-4-difluoromethoxyphenyl)-3-(4-methyl-2-pentynyl)-1,5-dihydropyrrolo[2,3-d]pyridazin-4-one] | – | 139 to 143 °C | 0.23 |
| COc1ccc(Cc2c(-c3ccc(OC(F)F)c(OC4CC4)c3)[nH]c3cn[nH]c(=O)c23)cn1 [Example 29, 2-(3-Cyclopropoxy-4-difluoromethoxyphenyl)-3-(6-methoxy-3-pyridylmethyl)-1,5-dihydropyrrolo[2,3-d]pyridazin-4-one] | – | 220 to 221 °C | 0.57 |
| CCc1c(-c2ccc(OC(F)F)c(OC3CC3)c2)[nH]c2cn[nH]c(=O)c12 [Example 5, 2-(3-Cyclopropoxy-4-difluoromethoxyphenyl)-3-ethyl-1,5-dihydropyrrolo[2,3-d]pyridazin-4-one] | >30 | 223 to 225 °C | 3.4 |
| CCOCCc1c(-c2ccc(OC(F)F)c(OC3CC3)c2)[nH]c2cn[nH]c(=O)c12 [Example 67, 2-(3-Cyclopropoxy-4-difluoromethoxyphenyl)-3-(2-ethoxyethyl)-1,5-dihydropyrrolo[2,3-d]pyridazin-4-one] | – | 201 to 203 °C | 1.4 |
| CC(C)OCc1c(-c2ccc(OC(F)F)c(OC3CC3)c2)[nH]c2cn[nH]c(=O)c12 [Example 60, 2-(3-Cyclopropoxy-4-difluoromethoxyphenyl)-3-isopropoxymethyl-1,5-dihydropyrrolo[2,3-d]pyridazin-4-one] | – | 196 to 197 °C | 3 |
| O=c1[nH]ncc2[nH]c(-c3ccc(OC(F)F)c(OCC4CC4)c3)c(-c3ccccc3)c12 [Example 38, 2-(3-Cyclopropylmethoxy-4-difluoromethoxyphenyl)-3-phenyl-1,5-dihydropyrrolo[2,3-d]pyridazin-4-one] | – | 249 to 251 °C | 7.1 |
| CCCCc1c(-c2ccc(OC(F)F)c(OC3CC3)c2)[nH]c2cn[nH]c(=O)c12 [Example 8, 3-Butyl-2-(3-cyclopropoxy-4-difluoromethoxyphenyl)-1,5-dihydropyrrolo[2,3-d]pyridazin-4-one] | – | 192 to 194 °C | 1.7 |
| O=c1[nH]ncc2[nH]c(-c3ccc(OC(F)F)c4c3C=CC(C3CC3)O4)cc12 (centres unmarked) [Example 58, 2-(2-Cyclopropyl-8-difluoromethoxy-2H-chromen-5-yl)-1,5-dihydropyrrolo[2,3-d]pyridazin-4-one] | – | 232 to 242 °C | 36 |
